Assay results published in publication PMC8949771, “Gold(I)-Mediated Rapid Cyclization of Propargylated Peptides via Imine Formation” (Journal of the American Chemical Society, 2022).

What was measured:
[1] = Au(I)-mediated imine macrocyclisation (JohnPhosAu(MeCN)SbF6 2 equiv, Et4NBr 16 equiv) then in situ NaBH4 reduction to cyclic amine, HPLC isolation; conditions: the molecule shown is the open-chain precursor, DMF, 8.0 mM, 37.0 °C, 2 steps
[2] = Au(I)-mediated imine macrocyclisation: N-terminal amine adds (Markovnikov) to N-propargyl backbone amide alkyne; JohnPhosAu(MeCN)SbF6 2 equiv, Et4NBr 16 equiv; in situ NaBH4 10 equiv reduction 15 min for quantification; conditions: DMF, 8.0 mM, 37.0 °C

Compound `C#CCN(CC(N)=O)C(=O)CNC(=O)[C@H](C)NC(=O)[C@H](CCCNC(=N)N)NC(=O)[C@H](Cc1ccc(O)cc1)NC(=O)[C@H](CC(C)C)NC(=O)CNC(=O)[C@@H](N)Cc1c[nH]c2ccccc12` [H-Trp-Gly-Leu-Tyr-Arg-Ala-Gly-(N-propargyl)Gly-NH2] has a ring closure, yield over several steps ([1]; 24-membered ring, 1.0 h) of 74%.

With `C#CCN(CC(N)=O)C(=O)[C@@H](NC(=O)[C@H](C)NC(=O)[C@H](CCCNC(=N)N)NC(=O)[C@H](Cc1ccc(O)cc1)NC(=O)[C@H](CC(C)C)NC(=O)CNC(=O)[C@@H](N)Cc1ccccc1)[C@@H](C)CC` [H-Phe-Gly-Leu-Tyr-Arg-Ala-Ile-(N-propargyl)Gly-NH2] the ring closure, yield over several steps ([1]; 24-membered ring, 1.0 h) was 66%.

For `CC(C)C[C@@H]1NC(=O)CNC(=O)[C@H](Cc2ccccc2)NC(C)CN(CC(N)=O)C(=O)CNC(=O)[C@H](C)NC(=O)[C@H](CCC(=O)O)NC(=O)[C@H](Cc2ccc(O)cc2)NC1=O` (stereo partly drawn) [H-Phe-Gly-Leu-Tyr-Glu-Ala-Gly-(N-propargyl)Gly-NH2], the ring closure, conversion by HPLC ([2]; from C#CCN(CC(N)=O)C(=O)CNC(=O)[C@H](C)NC(=O)[C@H](CCC(=O)O)NC(=O)[C@H](Cc1ccc(O)cc1)NC(=O)[C@H](CC(C)C)NC(=O)CNC(=O)[C@@H](N)Cc1ccccc1, 24-membered ring, 1.0 h) was 83%.

With `CC(C)C[C@@H]1NC(=O)CNC(=O)[C@H](Cc2ccccc2)NC(C)CN(CC(N)=O)C(=O)CNC(=O)[C@H](C)NC(=O)[C@@H]2CCCN2C(=O)[C@H](Cc2ccc(O)cc2)NC1=O` (stereo partly drawn) [H-Phe-Gly-Leu-Tyr-Pro-Ala-Gly-(N-propargyl)Gly-NH2] the ring closure, conversion by HPLC ([2]; from C#CCN(CC(N)=O)C(=O)CNC(=O)[C@H](C)NC(=O)[C@@H]1CCCN1C(=O)[C@H](Cc1ccc(O)cc1)NC(=O)[C@H](CC(C)C)NC(=O)CNC(=O)[C@@H](N)Cc1ccccc1, 24-membered ring, 1.0 h) was 77%.

With `C#CCN(CC(N)=O)C(=O)CNC(=O)[C@H](C)NC(=O)[C@H](CO)NC(=O)[C@H](Cc1ccc(O)cc1)NC(=O)[C@H](CC(C)C)NC(=O)CNC(=O)[C@@H](N)Cc1ccccc1` [H-Phe-Gly-Leu-Tyr-Ser-Ala-Gly-(N-propargyl)Gly-NH2] the ring closure, yield over several steps ([1]; 24-membered ring, 1.0 h) was 60%.

Compound `CC[C@H](C)[C@@H](C(N)=O)N1CC(C)N[C@@H](Cc2ccccc2)C(=O)NCC(=O)N[C@@H](CC(C)C)C(=O)N[C@@H](Cc2ccc(O)cc2)C(=O)N[C@@H](CCCNC(=N)N)C(=O)N[C@@H](C)C(=O)NCC1=O` (stereo partly drawn) [H-Phe-Gly-Leu-Tyr-Arg-Ala-Gly-(N-propargyl)Ile-NH2] has a ring closure, conversion by HPLC ([2]; from C#CCN(C(=O)CNC(=O)[C@H](C)NC(=O)[C@H](CCCNC(=N)N)NC(=O)[C@H](Cc1ccc(O)cc1)NC(=O)[C@H](CC(C)C)NC(=O)CNC(=O)[C@@H](N)Cc1ccccc1)[C@H](C(N)=O)[C@@H](C)CC, 24-membered ring, 1.0 h) of 85%.

With `CC(C)C[C@@H]1NC(=O)CNC(=O)CNC(=O)CNC(C)CN(CC(N)=O)C(=O)CNC(=O)[C@H](C)NC(=O)[C@H](CCCNC(=N)N)NC(=O)[C@H](Cc2ccc(O)cc2)NC1=O` (stereo partly drawn) [H-Gly-Gly-Gly-Leu-Tyr-Arg-Ala-Gly-(N-propargyl)Gly-NH2] the ring closure, conversion by HPLC ([2]; from C#CCN(CC(N)=O)C(=O)CNC(=O)[C@H](C)NC(=O)[C@H](CCCNC(=N)N)NC(=O)[C@H](Cc1ccc(O)cc1)NC(=O)[C@H](CC(C)C)NC(=O)CNC(=O)CNC(=O)CN, 27-membered ring, 0.5 h) was 91%.

In the case of `CC(=O)NCSC[C@@H]1NC(=O)[C@H](Cc2ccc(O)cc2)NC(=O)[C@H](CC(C)C)NC(=O)CNC(C)CN(CC(N)=O)C(=O)CNC(=O)[C@H](C)NC1=O` (stereo partly drawn) [H-Gly-Leu-Tyr-Cys(Acm)-Ala-Gly-(N-propargyl)Gly-NH2], the ring closure, conversion by HPLC ([2]; from C#CCN(CC(N)=O)C(=O)CNC(=O)[C@H](C)NC(=O)[C@H](CSCNC(C)=O)NC(=O)[C@H](Cc1ccc(O)cc1)NC(=O)[C@H](CC(C)C)NC(=O)CN, 21-membered ring, 0.5 h) is reported as 82%.

Compound `C#CCN(C(=O)CNC(=O)[C@H](C)NC(=O)[C@H](CCCNC(=N)N)NC(=O)[C@H](Cc1ccc(O)cc1)NC(=O)[C@H](CC(C)C)NC(=O)CNC(=O)[C@@H](N)Cc1ccccc1)[C@H](C(N)=O)[C@@H](C)CC` [H-Phe-Gly-Leu-Tyr-Arg-Ala-Gly-(N-propargyl)Ile-NH2] has a ring closure, yield over several steps ([1]; 24-membered ring, 1.0 h) of 60%.

Compound `C#CCN(CC(N)=O)C(=O)CNC(=O)[C@H](C)NC(=O)[C@H](CCCNC(=N)N)NC(=O)[C@H](Cc1ccc(O)cc1)NC(=O)[C@H](CC(C)C)NC(=O)[C@H](CCCCN)NC(=O)CNC(=O)OCC1c2ccccc2-c2ccccc21` [Fmoc-Gly-Lys-Leu-Tyr-Arg-Ala-Gly-(N-propargyl)Gly-NH2] has a ring closure, yield over several steps ([1]; 25-membered ring, 1.0 h) of 61%.

Work on `CC(C)C[C@@H]1NC(=O)CNC(=O)[C@H](Cc2ccccc2)NC(C)CN(CC(N)=O)C(=O)CNC(=O)[C@H](C)NC(=O)[C@H](Cc2c[nH]cn2)NC(=O)[C@H](Cc2ccc(O)cc2)NC1=O` (stereo partly drawn) [H-Phe-Gly-Leu-Tyr-His-Ala-Gly-(N-propargyl)Gly-NH2] yielded a ring closure, conversion by HPLC ([2]; from C#CCN(CC(N)=O)C(=O)CNC(=O)[C@H](C)NC(=O)[C@H](Cc1c[nH]cn1)NC(=O)[C@H](Cc1ccc(O)cc1)NC(=O)[C@H](CC(C)C)NC(=O)CNC(=O)[C@@H](N)Cc1ccccc1, 24-membered ring, 1.0 h) of 57%.

For `C#CCN(CC(N)=O)C(=O)CNC(=O)[C@H](C)NC(=O)[C@H](CCCNC(=N)N)NC(=O)[C@H](Cc1ccc(O)cc1)NC(=O)[C@H](CC(C)C)NC(=O)CNC(=O)[C@@H](N)Cc1ccccc1` [H-Phe-Gly-Leu-Tyr-Arg-Ala-Gly-(N-propargyl)Gly-NH2], the ring closure, yield over several steps ([1]; 24-membered ring, 0.5 h) was 75%.

`CC(C)C[C@@H]1NC(=O)CNC(=O)[C@H](Cc2c[nH]c3ccccc23)NC(C)CN(CC(N)=O)C(=O)CNC(=O)[C@H](C)NC(=O)[C@H](CCCNC(=N)N)NC(=O)[C@H](Cc2ccc(O)cc2)NC1=O` (stereo partly drawn) [H-Trp-Gly-Leu-Tyr-Arg-Ala-Gly-(N-propargyl)Gly-NH2] gave a ring closure, conversion by HPLC ([2]; from C#CCN(CC(N)=O)C(=O)CNC(=O)[C@H](C)NC(=O)[C@H](CCCNC(=N)N)NC(=O)[C@H](Cc1ccc(O)cc1)NC(=O)[C@H](CC(C)C)NC(=O)CNC(=O)[C@@H](N)Cc1c[nH]c2ccccc12, 24-membered ring, 1.0 h) of 83%.

`CC(C)C[C@@H]1NC(=O)CNC(=O)[C@H](Cc2ccccc2)NC(C)CN([C@@H](C)C(N)=O)C(=O)CNC(=O)[C@H](C)NC(=O)[C@H](CCCNC(=N)N)NC(=O)[C@H](Cc2ccc(O)cc2)NC1=O` (stereo partly drawn) [H-Phe-Gly-Leu-Tyr-Arg-Ala-Gly-(N-propargyl)Ala-NH2] gave a ring closure, conversion by HPLC ([2]; from C#CCN(C(=O)CNC(=O)[C@H](C)NC(=O)[C@H](CCCNC(=N)N)NC(=O)[C@H](Cc1ccc(O)cc1)NC(=O)[C@H](CC(C)C)NC(=O)CNC(=O)[C@@H](N)Cc1ccccc1)[C@@H](C)C(N)=O, 24-membered ring, 1.0 h) of 90%.

`CC[C@H](C)[C@@H]1NC(=O)[C@H](C)NC(=O)[C@H](CCCNC(=N)N)NC(=O)[C@H](Cc2ccc(O)cc2)NC(=O)[C@H](CC(C)C)NC(=O)CNC(=O)[C@H](Cc2ccccc2)NC(C)CN(CC(N)=O)C1=O` (stereo partly drawn) [H-Phe-Gly-Leu-Tyr-Arg-Ala-Ile-(N-propargyl)Gly-NH2] showed a ring closure, conversion by HPLC ([2]; from C#CCN(CC(N)=O)C(=O)[C@@H](NC(=O)[C@H](C)NC(=O)[C@H](CCCNC(=N)N)NC(=O)[C@H](Cc1ccc(O)cc1)NC(=O)[C@H](CC(C)C)NC(=O)CNC(=O)[C@@H](N)Cc1ccccc1)[C@@H](C)CC, 24-membered ring, 1.0 h) of 89%.

For `CC(C)C[C@@H]1NC(=O)CNC(C)CN(CC(N)=O)C(=O)CNC(=O)CNC(=O)CNC(=O)[C@H](C)NC(=O)[C@H](CCCNC(=N)N)NC(=O)[C@H](Cc2ccc(O)cc2)NC(=O)[C@H](CC(C)C)NC(=O)[C@H](Cc2ccccc2)NC(=O)CNC(=O)CNC(=O)[C@H](C)NC(=O)[C@H](CCCNC(=N)N)NC(=O)[C@H](Cc2ccc(O)cc2)NC(=O)[C@H](CC(C)C)NC1=O` (stereo partly shown), the ring closure, conversion by HPLC ([2]; from C#CCN(CC(N)=O)C(=O)CNC(=O)CNC(=O)CNC(=O)[C@H](C)NC(=O)[C@H](CCCNC(=N)N)NC(=O)[C@H](Cc1ccc(O)cc1)NC(=O)[C@H](CC(C)C)NC(=O)[C@H](Cc1ccccc1)NC(=O)CNC(=O)CNC(=O)[C@H](C)NC(=O)[C@H](CCCNC(=N)N)NC(=O)[C@H](Cc1ccc(O)cc1)NC(=O)[C@H](CC(C)C)NC(=O)[C@H](CC(C)C)NC(=O)CN, 51-membered ring, 1.0 h) was 94%.

With `CC(C)C[C@@H]1NC(=O)CNC(=O)[C@H](Cc2c[nH]cn2)NC(C)CN(CC(N)=O)C(=O)CNC(=O)[C@H](C)NC(=O)[C@H](CCCNC(=N)N)NC(=O)[C@H](Cc2ccc(O)cc2)NC1=O` (stereo partly drawn) [H-His-Gly-Leu-Tyr-Arg-Ala-Gly-(N-propargyl)Gly-NH2] the ring closure, conversion by HPLC ([2]; from C#CCN(CC(N)=O)C(=O)CNC(=O)[C@H](C)NC(=O)[C@H](CCCNC(=N)N)NC(=O)[C@H](Cc1ccc(O)cc1)NC(=O)[C@H](CC(C)C)NC(=O)CNC(=O)[C@@H](N)Cc1c[nH]cn1, 24-membered ring, 1.0 h) was 90%.

Compound `CC(C)C[C@@H]1NC(=O)CNC(=O)[C@H](Cc2ccccc2)NC(C)CN(CC(N)=O)C(=O)[C@H](C)NC(=O)[C@H](C)NC(=O)[C@H](CCCNC(=N)N)NC(=O)[C@H](Cc2ccc(O)cc2)NC1=O` (stereo partly drawn) [H-Phe-Gly-Leu-Tyr-Arg-Ala-Ala-(N-propargyl)Gly-NH2] has a ring closure, conversion by HPLC ([2]; from C#CCN(CC(N)=O)C(=O)[C@H](C)NC(=O)[C@H](C)NC(=O)[C@H](CCCNC(=N)N)NC(=O)[C@H](Cc1ccc(O)cc1)NC(=O)[C@H](CC(C)C)NC(=O)CNC(=O)[C@@H](N)Cc1ccccc1, 24-membered ring, 1.0 h) of 89%.

In the case of `CC[C@H](C)[C@@H]1NC(C)CN(CC(N)=O)C(=O)CNC(=O)[C@H](C)NC(=O)[C@H](CCCNC(=N)N)NC(=O)[C@H](Cc2ccc(O)cc2)NC(=O)[C@H](CC(C)C)NC(=O)CNC1=O` (stereo partly drawn) [H-Ile-Gly-Leu-Tyr-Arg-Ala-Gly-(N-propargyl)Gly-NH2], the ring closure, conversion by HPLC ([2]; from C#CCN(CC(N)=O)C(=O)CNC(=O)[C@H](C)NC(=O)[C@H](CCCNC(=N)N)NC(=O)[C@H](Cc1ccc(O)cc1)NC(=O)[C@H](CC(C)C)NC(=O)CNC(=O)[C@@H](N)[C@@H](C)CC, 24-membered ring, 1.0 h) is reported as 76%.
